Experimental data taken from ChEMBL document CHEMBL6120962, “New Mitochondria-Targeted Fisetin Derivative Compromises Mitophagy and Limits Survival of Drug-Induced Senescent Breast Cancer Cells” (J Med Chem, 2024).
Activity calls are given as the source filed them. The calls are words filed in the database; no cut-off is given here.

Columns and labels:
HCC1428 [1] = assay: Induction of oxidative stress in tamoxifen-induced senescent human HCC1428 cells assessed as increase in cytosolic SOD1 level at 1 to 5 uM incubated for 24 hrs by MitoSOX red superoxide indicator based fluorescence analysis; type: functional, cell-based; conditions: dose 1-5 µM
MCF-10F [2] = assay: Induction of mitochondrial dysfunction in human MCF-10F cells assessed as decrease in maximal respiration at 5 uM incubated for 6 hrs by real time analysis; type: functional, cell-based
MCF-10F [3] = assay: Induction of mitochondrial dysfunction in human MCF-10F cells assessed as decrease in ATP production at 5 uM incubated for 6 hrs by real time analysis; type: functional, cell-based
ZR-75-30 [4] = assay: Induction of apoptosis in human ZR-75-30 cells assessed as decrease in Bcl2 level at 1 to 5 uM incubated for 24 hrs by Western blot analysis; type: functional, cell-based; conditions: dose 1-5 µM
ZR-75-30 [5] = assay: Induction of apoptosis in tamoxifen-induced senescent human ZR-75-30 cells assessed as increase in caspase 9 level incubated for 24 hrs by immunostaining based imaging cytometric analysis; type: functional, cell-based
ZR-75-30 [6] = assay: Induction of oxidative stress in tamoxifen-induced senescent human ZR-75-30 cells assessed as increase in mitochondrial SOD2 level at 1 to 5 uM incubated for 24 hrs by MitoSOX red superoxide indicator based fluorescence analysis; type: functional, cell-based; conditions: dose 1-5 µM
CAMA-1 = assay: Induction of apoptosis in human CAMA-1 cells assessed as decrease in Bcl2 level at 1 to 5 uM incubated for 24 hrs by Western blot analysis; type: functional, cell-based; conditions: dose 1-5 µM
HCC1428 [7] = assay: Induction of mitochondrial dysfunction in tamoxifen-induced senescent human HCC1428 cells assessed as decrease in maximal respiration at 5 uM incubated for 6 hrs by real-time analysis; type: functional, cell-based
Mitochondrial membrane = assay: Induction of mitochondrial membrane potential depolarization in human HCC1428 cells at 1 uM incubated for 24 hrs by 7-AAD staining based flow cytometric analysis; type: cell membranes
HCC1500 = assay: Induction of apoptosis in tamoxifen-induced senescent human HCC1500 cells assessed as decrease in HSP90 level incubated for 24 hrs by immunostaining based imaging cytometric analysis; type: functional, cell-based
HCC1428 [8] = assay: Induction of ubiquitin-dependent mitophagy in tamoxifen-induced senescent human HCC1428 cells assessed as increase in parkin level at 5 uM by immunostaining based imaging cytometric analysis; type: functional, cell-based
HCC1428 [9] = assay: Induction of […] in human tamoxifen-induced senescent human HCC1428 cells at 1 to 5 uM incubated for 24 hrs by Annexin V-FITC staining based flow cytometric analysis; type: functional, cell-based; conditions: dose 1-5 µM
MCF7 = assay: Antitumor activity against ER-positive human MCF7 cells xenografted in Danio rerio embryo assessed as increase in Bax mRNA level at 1 to 5 uM administered for 48 hrs by RT-PCR analysis; type: functional, cell-based; conditions: dose 1-5 µM
HCC1428 [10] = assay: Induction of apoptosis in human HCC1428 cells assessed as decrease in AKT level at 1 to 5 uM incubated for 24 hrs by Western blotting analysis; type: functional, cell-based; conditions: dose 1-5 µM
HCC1428 [11] = assay: Induction of mitochondrial dysfunction in human HCC1428 cells assessed as decrease in ATP production at 5 uM incubated for 6 hrs by real time analysis; type: functional, cell-based
MCF-10F [12] = assay: Induction of mitochondrial dysfunction in human MCF-10F cells assessed as decrease in coupling efficiency at 5 uM incubated for 6 hrs by real time analysis; type: functional, cell-based
T47D = assay: Antitumor activity against ER-positive human T47D cells xenografted in Danio rerio embryo assessed as decrease in tumor size at 1 to 5 uM administered for 48 hrs by imaging analysis; type: functional, cell-based; conditions: dose 1-5 µM
HCC1428 [13] = assay: Induction of oxidative stress in tamoxifen-induced senescent human HCC1428 cells assessed as increase in mitochondrial SOD2 level at 1 to 5 uM incubated for 24 hrs by MitoSOX red superoxide indicator based fluorescence analysis; type: functional, cell-based; conditions: dose 1-5 µM

With `CC(=O)Oc1ccc2c(=O)c(OCCCC[P+](c3ccccc3)(c3ccccc3)c3ccccc3)c(-c3ccc4c(c3)OC(c3ccccc3)(c3ccccc3)O4)oc2c1.[I-]` the Activity (HCC1428 [1]) was “Active”, the Activity (MCF-10F [2]) was “inactive” and the Activity (MCF-10F [3]) was “inactive”. For the same compound, the Activity (ZR-75-30 [4]) was “Active”, the Activity (ZR-75-30 [5]) was “Active” and the Activity (ZR-75-30 [6]) was “Active”. For the same compound, the Activity (CAMA-1) was “Active”, the Activity (HCC1428 [7]) was “Active” and the Activity (Mitochondrial membrane) was “Active”. For the same compound, the Activity (HCC1500) was “Active”, the Activity (HCC1428 [8]) was “Active” and the Activity (HCC1428 [9]) was “Active”. For the same compound, the Activity (MCF7) was “Active”, the Activity (HCC1428 [10]) was “Active” and the Activity (HCC1428 [11]) was “Active”. For the same compound, the Activity (MCF-10F [12]) was “inactive”, the Activity (T47D) was “Active” and the Activity (HCC1428 [13]) was “Active”.
